Results taken from US6489487B1, “Triazolone derivatives, use thereof, and intermediates therefor” (Sumitomo Chemical Company, Limited, priority 1998, dated 2002).

SMILES	melting point [°C]
Cc1ccc(-c2ccccc2)cc1Cn1c(C2CC2)nn(C)c1=O [Compound 538, 5-cyclopropyl-2-methyl-4-(2-methyl-5-phenylbenzyl)-2,4-dihydro-3H-1,2,4-triazol-3-one]	102.4
CSc1nn(C)c(=O)n1Cc1cc(-c2ccccc2)ccc1C [Compound 8, 5-methylthio-2-methyl-4-(2-methyl-5-phenylbenzyl)-2,4-dihydro-3H-1,2,4-triazol-3-one]	95.6
Cc1ccc(-c2ccccc2)cc1Cn1c(Cl)nn(C)c1=O [Compound 7, 5-chloro-2-methyl-4-(2-methyl-5-phenylbenzyl)-2,4-dihydro-3H-1,2,4-triazol-3-one]	115.7
Cc1ccc(-c2ccccc2)cc1Cn1c(C)nn(C)c1=O [Compound 10, 2,5-dimethyl-4-(2-methyl-5-phenylbenzyl)-2,4-dihydro-3H-1,2,4-triazol-3-one]	138.9
